Literature values as cited in the CATMoS acute toxicity set (Mansouri et al. 2021).
Several values for one entry are separate records, joined by “and”; a condition that tells them apart may be missing. Equal entries are not always repeated.

Assay: rat acute oral toxicity
Settings: in vivo

Structure (SMILES) | LD50
CCCC[C@H](C)[C@H](O)C#C[C@H]1CCC(=O)[C@@H]1CC=CCCCC(=O)OC | 338 mg/kg
CN1CSC(=S)N(C)C1 | 320 mg/kg
CCCOC(=O)c1c[n+](C)c2n(c1=O)C(C)CCC2 (stereo not drawn) | 1810 mg/kg
CCS(=O)CCOP(=S)(OC)OC (stereo not drawn) | 600 mg/kg
C=C1/C(=C/C=C2/CCC[C@]3(C)[C@@H]([C@H](C)CCCC(C)C)CC[C@@H]23)C[C@@H](O)C[C@@H]1O | 0.34 mg/kg
N#CSc1ccc(C(=O)O)cc1 | 83 mg/kg
CN(C)C(=O)Nc1cccc(OC(=O)NC(C)(C)C)c1 | 3000 mg/kg
Fc1ccc(Br)cc1 | 2700 mg/kg
N#CSCSC#N | 55 mg/kg
O=C1C(Cl)=C(Cl)C(=O)C1=C(Cl)Cl | 2300 mg/kg
Cc1nc2ccccc2c(=O)n1-c1ccc(Br)cc1 | 185 mg/kg
CCCOC(=O)c1ccc(C(=O)OCCC)nc1 | 5230 mg/kg
CCCCCCCCCCCCCCCCCC(=O)OC[C@@H](O)[C@H]1OC[C@H](O)[C@H]1O | 31000 mg/kg
OC1CC2CC1C1CC=CC21 (stereo not drawn) | 3200 mg/kg
CN(C)CCC=C1c2ccccc2C(C)(C)c2ccccc21 | 170 mg/kg
CC12CC1(C)C(=O)N(c1cc(Cl)cc(Cl)c1)C2=O (stereo not drawn) | 7000 mg/kg
CCOC(=O)CC | 8730 mg/kg
CCOP(=S)(CCl)Oc1ccc(C#N)cc1OC (stereo not drawn) | 71 mg/kg
CC(C)NCCCC1(C(N)=O)c2ccccc2-c2ccccc21 | 82 mg/kg
c1ccc(-c2ccc(C(c3ccccc3)n3ccnc3)cc2)cc1 (stereo not drawn) | 1460 mg/kg
Cc1ccccc1-n1c(CF)nc2ccc(N)cc2c1=O | 249 mg/kg
Clc1cc(Cl)cc(C2(CC(Cl)(Cl)Cl)CO2)c1 (stereo not drawn) | 1500 mg/kg
O=C(O)c1ccccc1C(=O)c1ccccc1 | 4600 mg/kg
FC(F)(F)c1nc2c(Br)c(Cl)c(Cl)c(Br)c2[nH]1 | 3.43 mg/kg
CN1CCC[C@@H]1CCO[C@](C)(c1ccccc1)c1ccc(Cl)cc1 | 3550 mg/kg

Structure (SMILES) | LD50
CC(=O)OC(c1ccccc1)C(Cl)(Cl)Cl (stereo not drawn) | 6800 mg/kg
CC(c1ccccc1)N(C)N=O (stereo not drawn) | 600 mg/kg
CCCCCCCCCCCCCCCC(=O)OC/C=C(C)/C=C/C=C(C)/C=C/C1=C(C)CCCC1(C)C | 7910 mg/kg
COS(=O)(=O)c1ccc(C)cc1 | 341 mg/kg
CN(C)C(=O)Nc1cc(C(C)(C)C)on1 | 630 mg/kg
CN1C(=CC=CC2=[N+](C)c3ccccc3C2(C)C)C(C)(C)c2ccccc21 | 18 mg/kg
O=C(OCC1CO1)c1cccc(C(=O)OCC2CO2)c1 (stereo not drawn) | 1000 mg/kg
N#CC(F)(F)C(F)(F)C(F)(F)C#N | 2600 mg/kg
CCN(CCCl)c1ccccc1 | 616 mg/kg
CCN(CC)CCOC(=O)C(O)(c1ccccc1)c1ccccc1 | 184 mg/kg
CCOC(C1=NCC(C)(C)CN1)c1ccccc1 (stereo not drawn) | 875 mg/kg
Cc1cc(=S)c(N)n[nH]1 | 1980 mg/kg
CCCCCCOC(=O)C(O)c1ccccc1 (stereo not drawn) | 17000 mg/kg
CC(=O)OC(C)CC(C)C (stereo not drawn) | 6160 mg/kg
COc1ccc(C(=O)Nc2ccccc2CCC2CCCCN2C)cc1 (stereo not drawn) | 57 mg/kg
C=Cc1ccc(C=O)o1 | 2080 mg/kg
CC=C(C(=O)NC(N)=O)C(C)C | 9000 mg/kg
COC(=O)CC(SP(=S)(OC)OC)C(=O)OC (stereo not drawn) | 1020 mg/kg
CCCCCCc1ccc(O)cc1O | 550 mg/kg
CCCC(C)C(c1ccc(O)cc1)C(C)C (stereo not drawn) | 1900 mg/kg
Cc1cc(C)c(C)cc1C | 6990 mg/kg
COc1nccc(C(F)(F)F)c1S(=O)(=O)Cl | 3130 mg/kg
CNC(=O)Oc1cc(C)c(SC)c(C)c1 | 20 mg/kg
CN1[C@@H]2CC[C@H]1C[C@@H](OC1c3ccccc3CCc3ccccc31)C2 | 445 mg/kg
CCC(=O)c1ccc(N)cc1 | 177 mg/kg

Structure (SMILES) | LD50
CCOc1ccccc1OCCN[C@H](C)Cc1ccc(OC)c(S(N)(=O)=O)c1 | 650 mg/kg
NC(=O)CCN1CCN(C2Cc3cc(Cl)ccc3Sc3cc(F)ccc32)CC1 (stereo not drawn) | 472 mg/kg and 490 mg/kg
CN1CCC23CCCCC2C1Cc1ccc(O)cc13 (stereo not drawn) | 350 mg/kg
NCCc1ccc(O)c(O)c1 | 2860 mg/kg
CP(=O)(Oc1ccc([N+](=O)[O-])cc1)c1ccccc1 (stereo not drawn) | 12.5 mg/kg
O=[N+]([O-])c1ccc(F)cc1F | 200 mg/kg
CCCCCCCCCCCCCC[N+](C)(C)Cc1ccccc1 | 426 mg/kg
COc1c(Cl)c(Cl)c(OC)c2[nH]c(C(F)(F)F)nc12 | 100 mg/kg
Cc1cc2[nH]c(C(F)(F)F)nc2cc1Br | 77 mg/kg
CCCCC(CC)COCC1CO1 (stereo not drawn) | 7800 mg/kg
NC(=O)N/N=C/c1ccc([N+](=O)[O-])o1 | 590 mg/kg
CCCCSC(=Nc1cccnc1)SCc1ccc(C(C)(C)C)cc1 | 2700 mg/kg
CCCNC(=O)c1sc(-c2cc(OC)c(OC)c(OC)c2)nc1C | 5600 mg/kg
c1ccc(N=Nc2ccccc2)cc1 | 1000 mg/kg
CCCCN(CCCC)C(=O)CF | 37 mg/kg
Nc1cc(N)cc(C(F)(F)F)c1 | 380 mg/kg
N#Cc1cc(Cl)cc2[nH]c(C(F)(F)F)nc12 | 4.79 mg/kg
O=C1CC2(CCCC2)CC(=O)N1CCCCN1CCN(c2ncccn2)CC1 | 196 mg/kg
FC(F)C(F)(F)OCC(Cn1cncn1)c1ccc(Cl)cc1Cl (stereo not drawn) | 1030 mg/kg
O=C(O)C(c1ccc(Cl)cc1)c1ccc(Cl)cc1 | 600 mg/kg and 740 mg/kg
CCOC(=O)C1(c2ccccc2)CCN(CCOCC2CCCO2)CC1 (stereo not drawn) | 135 mg/kg
CC(C)C(=O)OC1CCC(N2CCCCC2)CC1 (stereo not drawn) | 3150 mg/kg
O=C(O)C(S)C(S)C(=O)O (stereo not drawn) | 4000 mg/kg
CN1CCC(OC(=O)COc2ccc(Cc3ccc(Cl)cc3)cc2)CC1 | 1900 mg/kg
CCOC(=O)C1CC(=O)C(=C(O)C2CC2)C(=O)C1 (stereo not drawn) | 4460 mg/kg

Structure (SMILES) | LD50
ClCC(Br)CBr (stereo not drawn) | 170 mg/kg
CC(C)(C(=O)O)S(C)(=O)=O | 5700 mg/kg
CCOC(=O)C(Cl)Cc1cc(-n2nc(C)n(C(F)F)c2=O)c(F)cc1Cl (stereo not drawn) | 5140 mg/kg
CCC(=O)C(C)=O | 3000 mg/kg
CCOC(=O)C1(c2ccccc2)CCN(CCOCCO)CC1 | 230 mg/kg
NCCC[Si]12OCCN(CCO1)CCO2 | 5800 mg/kg
CCc1cc(C(N)=S)ccn1 | 1320 mg/kg
C#CCOC(C)=O | 250 mg/kg
CC=CC=CC=CC(C)=O | 4300 mg/kg
Cc1cccc(OCCC(C)C)c1N(C)C(=O)CCl | 3300 mg/kg
COc1cc2c(cc1OC)C(c1ccc(N)cc1)=NN=C(C)C2 | 128 mg/kg
COc1cc(CC(C)N)cc2c1OCO2 (stereo not drawn) | 170 mg/kg
C[C@H]1c2cccc(O)c2C(=O)C2=C(O)[C@]3(O)C(=O)C(C(N)=O)=C(O)[C@@H](N(C)C)[C@@H]3[C@@H](O)[C@@H]21 | 1700 mg/kg
CCCCCCCCn1sccc1=O | 550 mg/kg
OCc1ccccc1 | 1230 mg/kg
Cc1ccccc1Oc1cccnn1 | 3090 mg/kg
CN1CCCC(CN2c3ccccc3Sc3ccccc32)C1 (stereo not drawn) | 1000 mg/kg
CC(=O)OCC(C)OC(C)=O (stereo not drawn) | 13500 mg/kg
Nc1ccc2c3c([nH]c2c1)CCCC3 | 290 mg/kg
CC1OCC2C(CO1)C1(Cl)C(Cl)=C(Cl)C2(Cl)C1(Cl)Cl (stereo not drawn) | 120 mg/kg
O=CC1C(=O)N(c2ccccc2)N=C1c1ccccc1 (stereo not drawn) | 789 mg/kg
Cc1ncc(CSSCc2cnc(C)c(O)c2CCl)c(CCl)c1O | 4300 mg/kg
CC(C)/N=C(\N)NC(C)C | 2880 mg/kg
CCOC(=O)Cc1[nH]nc2ccc(Cl)cc12 | 4800 mg/kg
N=C(N)NC(=O)Cc1c(Cl)cccc1Cl | 142 mg/kg

Structure (SMILES) | LD50
CCCCCCOC(=O)c1ccccc1 | 12300 mg/kg
CCCCCCCCCC=O | 3730 mg/kg
CCCCC(CC)CNC1CCCCC1 (stereo not drawn) | 710 mg/kg
Nc1c(Cl)cc(Cl)cc1C(=O)O | 4120 mg/kg
CC1CN(CCO)CC1C (stereo not drawn) | 1230 mg/kg
CCC#N | 39 mg/kg
CCO[Si](CCCC#N)(OCC)OCC | 4920 mg/kg
O=[N+]([O-])c1ccc(OP(=O)(CCl)c2ccccc2)cc1 (stereo not drawn) | 203 mg/kg
C=C(C)C#N | 120 mg/kg
CC(C)(C)CCCCCCC(=O)O | 2070 mg/kg
Cc1cc(CC(=O)O)n(C)c1C(=O)c1ccc(Cl)cc1 | 27 mg/kg
ClC(Cl)=C1C(Cl)(Cl)C(Cl)=C(Cl)C1(Cl)Cl | 3700 mg/kg
O=[N+]([O-])c1cc(Cl)c(N=Nc2ccc(N3CCS(=O)(=O)CC3)cc2)c(Cl)c1 | 3200 mg/kg
COc1c(OP(=S)(Oc2cnn(C)c(=O)c2OC)OC(C)C)cnn(C)c1=O | 100 mg/kg
C1=CCC=C1 | 113 mg/kg
CC(=O)c1ccc2c(c1)N(CCCN(C)C)c1ccccc1S2 | 400 mg/kg
CCCCC(C)(C)[C@H](O)C=C[C@H]1[C@H](O)CC(=O)[C@@H]1CCCCC=CC(=O)OC | 56.5 mg/kg
Cc1ccc(C)c(CCNC(N)=O)c1 | 2300 mg/kg
COP(=O)(Oc1cc(Cl)c(Br)cc1Cl)c1ccccc1 (stereo not drawn) | 118 mg/kg
CN1C(C(=O)Nc2ccccn2)=C(O)c2ccccc2S1(=O)=O | 216 mg/kg
CCOC(=O)c1c[nH]c2cc(OCC3CC3)c(OCC3CC3)cc2c1=O | 3000 mg/kg
CC(C)NCC1CCc2cc(CO)c([N+](=O)[O-])cc2N1 (stereo not drawn) | 30 mg/kg
Cc1ccccc1C(=O)NC1=NCCS1 | 912 mg/kg
O=C(OCCCOCCCOC(=O)c1ccccc1)c1ccccc1 | 9800 mg/kg
C=Cc1ccc(OCC2CO2)cc1 (stereo not drawn) | 1000 mg/kg

Structure (SMILES) | LD50
Nc1ccc(O)c(C(=O)O)c1 | 2800 mg/kg
CCCCC(CC)COC(C[n+]1ccccc1)c1ccc(C2CCCC2)cc1 (stereo not drawn) | 250 mg/kg
CC1(C)COC(c2ccccc2)CN1 (stereo not drawn) | 450 mg/kg and 480 mg/kg
C[N+]1(CC2COC(c3ccccc3)(C3CCCCC3)O2)CCCCC1 (stereo not drawn) | 494 mg/kg
NS(=O)(=O)c1cc2c(cc1Cl)CN(C1CCCCC1)C2=O | 6000 mg/kg
CS(=O)(=O)c1ccc(N)c(Cl)c1 | 9500 mg/kg
Cc1ccc2c(c1)C1CN(CCCC(=O)c3ccc(F)cc3)CCC1N2 (stereo not drawn) | 812 mg/kg
CCOP(=O)(NC)Oc1ccc(SC)c(C)c1 (stereo not drawn) | 5 mg/kg
CCC(C)(N)C#N (stereo not drawn) | 74 mg/kg
O=C(O)C(O)(c1ccccc1)C1CCCCC1 (stereo not drawn) | 2670 mg/kg
O=C1c2ccccc2C(=O)C1C(=O)C(c1ccccc1)c1ccccc1 | 1.5 mg/kg
O=C(CCl)c1ccc(O)cc1 | 230 mg/kg
O=c1c(Cl)c(Cl)cnn1-c1ccccc1 | 2520 mg/kg
NCC(CC(=O)O)c1ccc(Cl)cc1 (stereo not drawn) | 145 mg/kg
O=C(CCC(=O)OC1CCCCC1)OC1CCCCC1 | 12000 mg/kg
CCOC(=O)OC(C)OC1=C(C(=O)Nc2ccccn2)N(C)S(=O)(=O)c2ccccc21 (stereo not drawn) | 747 mg/kg
Nc1ccc2c(c1)C(=O)NC(CCCl)O2 (stereo not drawn) | 1960 mg/kg
CCCCCCOc1ccc(NNC=O)cc1 | 717 mg/kg
CNCCCC12CC(c3ccccc31)c1ccccc12 | 1320 mg/kg
CCN(CC)CCOC(=O)C1(C2CCCCC2)CCCCC1 | 1290 mg/kg
Clc1cccc(C(Cl)(Cl)Cl)n1 | 940 mg/kg
CC(O)CC=O (stereo not drawn) | 2180 mg/kg
O=C(NO)Nc1ccc(Cl)c(Cl)c1 | 1850 mg/kg
